Measured values from paper PMC12217109, “Development of novel benzamide class I selective lysine deacetylase inhibitors as potent anticancer agents” (Journal of Enzyme Inhibition and Medicinal Chemistry, 2025).
“Also recorded” adds a separate entry of the source.

Columns and labels:
[1] = test system: hyperacetylated Histone H4; assay: Western blot of histone H4 hyperacetylation in A2780 cells; assay type: cell-based, human; settings: A2780, 10 µM, 2, 4, 16 hrs
Description: Cells were then washed with ice-cold phosphate buffered saline (PBS) and lysed and sonicated in RIPA buffer [150 mM NaCl, 50 mM TrisHCl pH 7.4, 5 mM EDTA, 1% NP40, 0.1% SDS, 1 mM phenylmethylsulphonyl fluoride (PMSF) and proteinase inhibitor cocktail (1x)]. Cellular debris was removed by centrifugation (12,000 × g for 20 min, 4 °C) and protein concentration of the supernatants determined by Bradford Assay. Proteins (30 μg protein per lane) were resolved by SDS-PAGE, then transferred to the PVDF membrane (Hybond-P; Amersham, UK). For band size determination, Amersham Full-Range Rainbow™ Molecular Weight Markers (#RPN800) were loaded adjacent to the proteins within the gel. Non-specific protein binding on the PVDF membrane was blocked using 5% non-fat milk powder and the membranes probed separately with either anti-hyperacetylated Histone H4 (Penta) antibody (Upstate Biotechnology, USA), acetylated tubulin or β-actin antibodies (Sigma-Aldrich, UK). This was followed by incubation with horseradish peroxidase (HRP)-conjugated secondary antibodies (Dako, USA), with immunoreactive bands detected by enhanced chemiluminescence (ECL Plus detection kit; Amersham, UK).

[2] = test system: A2780 human ovarian tumour xenograft; assay: A2780 human ovarian tumour xenograft efficacy study; assay type: in vivo, mice; settings: 100 mg/kg i.p. days 0–4 and 7–11
Source text: Female CD-1 (Crl:CD1-Foxn1^nu) immunodeficient nude mice aged 6–12 weeks were used (Charles River, Margate UK). Mice were kept in stainless steel cages housed in isolation cabinets in an air-conditioned room with regular alternating cycles of light and darkness, receiving Teklad 2018 diet (Envigo, Blackthorn, UK) and water ad libitum. Before experimentation, all mice were allowed to acclimatise for one week to their environment. Environmental enrichment was provided in the form of Perspex “mouse houses”, chewing blocks and exercise wheels.
To assess in vivo compound efficacy, mice were implanted subcutaneously in the abdominal flanks with 2–3 mm^3 -fragments of A2780 human ovarian tumour xenograft tumours, whilst under brief general inhalation anaesthesia (2% isoflurane). Treatments were initiated when tumours reached approximately 32 mm^3 and mice randomly assigned to cohorts (Twelve mice; n = 6 per group). […] Tumour volume, via calliper measurements, and body weight were assessed daily from initiation of treatment. The cut-off points for in-study termination being a > 15% body weight loss over a 72-h period and the tumour not exceeding 15 mm in the longest diameter. All mice were euthanised by isoflurane anaesthesia followed by cervical dislocation […]

leukemic cell lines = assay: NCI-60 cytotoxicity screen, leukaemic cell lines; assay type: cell-based; settings: Homo sapiens; NCI-60, range over cell lines; read-out: cytotoxicity IC50 against leukemic cell lines
Source text: Compounds 3–7 were submitted to the US National Cancer Institute (NIH, Bethesda, Maryland) for screening against the NCI-60 panel of human cancer cell lines, as per standard protocol.

HDAC4 = HDAC4 (Homo sapiens, UniProt P56524); assay: Inhibition of individual recombinant KDACs
Chain of HDAC4 (P56524 whole entry): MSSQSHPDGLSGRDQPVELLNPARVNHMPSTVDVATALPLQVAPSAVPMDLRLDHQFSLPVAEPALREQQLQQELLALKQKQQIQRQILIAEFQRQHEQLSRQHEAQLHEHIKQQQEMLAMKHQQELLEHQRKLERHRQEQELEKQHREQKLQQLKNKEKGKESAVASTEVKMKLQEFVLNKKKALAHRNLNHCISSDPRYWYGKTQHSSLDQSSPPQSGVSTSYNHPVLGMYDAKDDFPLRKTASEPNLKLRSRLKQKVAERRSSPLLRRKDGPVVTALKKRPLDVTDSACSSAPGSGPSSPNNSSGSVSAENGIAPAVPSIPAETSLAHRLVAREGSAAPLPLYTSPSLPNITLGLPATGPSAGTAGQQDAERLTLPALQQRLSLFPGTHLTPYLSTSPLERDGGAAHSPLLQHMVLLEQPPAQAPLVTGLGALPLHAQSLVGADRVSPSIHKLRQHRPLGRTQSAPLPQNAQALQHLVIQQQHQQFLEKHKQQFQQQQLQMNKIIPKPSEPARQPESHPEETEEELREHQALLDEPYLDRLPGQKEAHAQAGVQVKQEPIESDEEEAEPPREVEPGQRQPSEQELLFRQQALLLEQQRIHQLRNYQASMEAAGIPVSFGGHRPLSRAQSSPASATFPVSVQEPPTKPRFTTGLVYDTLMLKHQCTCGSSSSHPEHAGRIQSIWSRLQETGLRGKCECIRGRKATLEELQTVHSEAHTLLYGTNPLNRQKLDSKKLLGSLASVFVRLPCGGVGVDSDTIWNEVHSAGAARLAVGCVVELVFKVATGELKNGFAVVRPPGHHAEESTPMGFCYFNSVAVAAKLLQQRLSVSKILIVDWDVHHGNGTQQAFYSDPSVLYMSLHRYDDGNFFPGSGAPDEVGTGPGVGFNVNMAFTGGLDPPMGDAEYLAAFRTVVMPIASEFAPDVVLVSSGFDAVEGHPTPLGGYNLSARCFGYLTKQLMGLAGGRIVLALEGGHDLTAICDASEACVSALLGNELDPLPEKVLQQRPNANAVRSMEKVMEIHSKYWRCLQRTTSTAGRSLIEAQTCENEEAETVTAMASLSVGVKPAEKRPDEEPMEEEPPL

HDAC5 = HDAC5 (Homo sapiens, UniProt Q9UQL6); assay: Inhibition of individual recombinant KDACs
Chain of HDAC5 (Q9UQL6 whole entry): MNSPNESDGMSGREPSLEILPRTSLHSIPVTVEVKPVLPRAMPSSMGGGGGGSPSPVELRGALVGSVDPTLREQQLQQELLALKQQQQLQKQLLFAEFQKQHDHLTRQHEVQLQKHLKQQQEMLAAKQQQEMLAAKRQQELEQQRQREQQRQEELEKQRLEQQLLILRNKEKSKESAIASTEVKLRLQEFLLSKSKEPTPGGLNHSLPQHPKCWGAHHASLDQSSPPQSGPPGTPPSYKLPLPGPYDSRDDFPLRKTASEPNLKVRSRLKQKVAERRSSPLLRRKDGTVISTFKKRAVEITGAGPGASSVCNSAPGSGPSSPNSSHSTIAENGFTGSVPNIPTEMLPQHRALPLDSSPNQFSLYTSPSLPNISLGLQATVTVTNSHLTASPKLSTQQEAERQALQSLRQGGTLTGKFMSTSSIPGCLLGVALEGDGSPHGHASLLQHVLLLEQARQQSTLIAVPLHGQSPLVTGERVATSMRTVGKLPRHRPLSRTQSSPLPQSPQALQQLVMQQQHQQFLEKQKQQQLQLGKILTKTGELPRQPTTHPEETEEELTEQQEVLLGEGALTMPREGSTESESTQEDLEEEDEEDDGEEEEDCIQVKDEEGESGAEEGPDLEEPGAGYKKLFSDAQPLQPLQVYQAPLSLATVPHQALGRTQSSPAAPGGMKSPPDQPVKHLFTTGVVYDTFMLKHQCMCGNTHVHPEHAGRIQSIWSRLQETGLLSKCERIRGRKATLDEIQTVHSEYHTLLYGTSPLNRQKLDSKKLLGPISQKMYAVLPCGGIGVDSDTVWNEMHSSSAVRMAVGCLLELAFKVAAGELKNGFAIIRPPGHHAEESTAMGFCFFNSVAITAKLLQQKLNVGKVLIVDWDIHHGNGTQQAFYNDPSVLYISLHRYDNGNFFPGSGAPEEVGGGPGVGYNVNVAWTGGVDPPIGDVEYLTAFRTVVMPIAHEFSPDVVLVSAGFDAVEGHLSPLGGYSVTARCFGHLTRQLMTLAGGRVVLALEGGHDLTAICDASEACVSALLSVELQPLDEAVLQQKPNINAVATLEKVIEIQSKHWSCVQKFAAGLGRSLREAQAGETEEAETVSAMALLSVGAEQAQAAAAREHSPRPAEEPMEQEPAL

HDAC6 = HDAC6 (Homo sapiens, UniProt Q9UBN7); assay: Inhibition of individual recombinant KDACs
Chain of HDAC6 (Q9UBN7 whole entry): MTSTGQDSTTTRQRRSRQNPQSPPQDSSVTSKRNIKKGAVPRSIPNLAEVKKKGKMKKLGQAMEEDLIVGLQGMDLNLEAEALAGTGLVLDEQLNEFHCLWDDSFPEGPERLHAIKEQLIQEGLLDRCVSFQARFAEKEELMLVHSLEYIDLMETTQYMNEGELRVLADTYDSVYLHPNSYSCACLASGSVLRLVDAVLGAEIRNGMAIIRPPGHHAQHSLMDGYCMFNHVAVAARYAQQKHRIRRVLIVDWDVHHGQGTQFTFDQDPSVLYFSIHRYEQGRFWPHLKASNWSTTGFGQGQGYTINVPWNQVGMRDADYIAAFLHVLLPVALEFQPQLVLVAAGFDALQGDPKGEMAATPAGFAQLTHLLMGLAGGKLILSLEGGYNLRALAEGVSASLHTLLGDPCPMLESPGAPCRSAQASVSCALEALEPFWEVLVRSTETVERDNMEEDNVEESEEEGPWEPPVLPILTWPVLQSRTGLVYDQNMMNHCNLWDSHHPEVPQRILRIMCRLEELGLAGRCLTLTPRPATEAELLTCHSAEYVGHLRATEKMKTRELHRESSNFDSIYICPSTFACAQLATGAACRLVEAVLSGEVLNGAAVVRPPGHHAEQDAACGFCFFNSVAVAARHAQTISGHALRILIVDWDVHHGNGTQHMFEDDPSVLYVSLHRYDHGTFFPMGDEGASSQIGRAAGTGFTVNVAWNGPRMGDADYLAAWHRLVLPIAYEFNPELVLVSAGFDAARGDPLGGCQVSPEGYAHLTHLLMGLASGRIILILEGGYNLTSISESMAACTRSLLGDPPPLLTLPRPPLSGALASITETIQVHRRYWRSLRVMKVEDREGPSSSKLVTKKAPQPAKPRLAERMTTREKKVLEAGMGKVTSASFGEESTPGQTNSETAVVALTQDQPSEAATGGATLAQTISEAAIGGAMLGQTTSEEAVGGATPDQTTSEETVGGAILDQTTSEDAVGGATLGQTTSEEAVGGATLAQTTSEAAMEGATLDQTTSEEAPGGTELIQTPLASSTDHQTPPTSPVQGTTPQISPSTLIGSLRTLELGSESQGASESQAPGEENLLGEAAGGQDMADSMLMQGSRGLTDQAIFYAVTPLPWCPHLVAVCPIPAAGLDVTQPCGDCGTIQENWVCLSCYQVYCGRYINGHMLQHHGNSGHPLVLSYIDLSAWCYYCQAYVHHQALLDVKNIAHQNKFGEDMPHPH

HDAC10 = HDAC10 (Homo sapiens, UniProt Q969S8); assay: Inhibition of individual recombinant KDACs
Chain of HDAC10 (Q969S8 whole entry): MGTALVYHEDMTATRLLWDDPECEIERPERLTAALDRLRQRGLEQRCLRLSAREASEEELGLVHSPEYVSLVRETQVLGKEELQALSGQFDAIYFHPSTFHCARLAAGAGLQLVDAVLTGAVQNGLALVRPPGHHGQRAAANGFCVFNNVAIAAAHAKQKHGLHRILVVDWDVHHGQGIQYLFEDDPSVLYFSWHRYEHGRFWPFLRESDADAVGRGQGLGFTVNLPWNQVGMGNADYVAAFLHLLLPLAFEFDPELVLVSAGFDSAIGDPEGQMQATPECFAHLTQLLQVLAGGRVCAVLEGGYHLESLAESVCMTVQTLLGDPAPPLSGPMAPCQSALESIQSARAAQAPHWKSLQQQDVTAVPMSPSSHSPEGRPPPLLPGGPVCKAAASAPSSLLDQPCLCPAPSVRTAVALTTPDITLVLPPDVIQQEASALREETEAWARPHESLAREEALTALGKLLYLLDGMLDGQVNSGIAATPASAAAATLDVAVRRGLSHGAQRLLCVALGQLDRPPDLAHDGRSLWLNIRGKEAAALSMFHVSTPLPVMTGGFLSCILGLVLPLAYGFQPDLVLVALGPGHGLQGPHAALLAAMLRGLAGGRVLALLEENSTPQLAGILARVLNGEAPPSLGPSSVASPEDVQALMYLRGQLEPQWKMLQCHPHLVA

In the case of `C=C(CN1CCN(c2cccc(C(F)(F)F)n2)CC1)c1ccc(C(=O)Nc2ccccc2N)cc1` [Compound 7, N-(2-aminophenyl)-4–(3-(4–(6-(trifluoromethyl)pyridin-2-yl)piperazin-1-yl)prop-1-en-2-yl)benzamide], the “histone H4 hyperacetylation (western blotting)” value [1] is reported as “Time dependent increase in Histone H4 acetylation; also recorded: time-dependent increase in histone H4 hyperacetylation”, the “weight loss / toxicity during treatment” value [2] is reported as “No significant weight loss or overt toxicity; also recorded: did not induce significant weight loss or detrimental toxicity” and the IC50 (leukemic cell lines) is reported as 0.28 to 0.86 µM. The IC50 (HDAC4) was over 10 µM, the IC50 (HDAC5) was over 10 µM and the IC50 (HDAC6) was over 10 µM. It also gave an IC50 (HDAC10) of over 10 µM.
